Data published in US9073830B2 (Hyundai Pharm Co., Ltd., priority 2011, dated 2015).

Assays:
mouse 11β-HSD1 = biological target: T1, mouse 11β-HSD1 (Mus musculus, UniProt P50172); assay: Enzyme activity analysis on mouse 11β-HSD1 (HTRF cortisol, liver microsomes); type: biochemical; settings: second value of cell
T1 construct: 100 ug/ml human/mouse liver microsomes; from tissue; host or cells: mouse liver microsomes
In short: (§1)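 Cortisol generated by mouse or human liver microsome 11β-HSD1 during 2 h at 37° C., measured by HTRF competition (cryptate anti-cortisol antibody, d2-cortisol, 2 h room temperature) against a cortisol standard curve. IC50 from percent inhibition versus no-compound control.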

human 11β-HSD1 = biological target: T2, human 11β-HSD1 (Homo sapiens, UniProt P28845); assay: Enzyme activity analysis on human 11β-HSD1 (HTRF cortisol, liver microsomes); type: biochemical; settings: first value of cell
T2 construct: 100 ug/ml human/mouse liver microsomes; from tissue; host or cells: human liver microsomes
In short: as §1

human 11β-HSD2 = biological target: T3, human 11β-HSD2 (Homo sapiens, UniProt P80365); assay: 11b-HSD2 inhibition test in transfected CHO cells; type: cell-based; settings: at a concentration of 10 uM; CHO cells expressing human 11β-HSD2; read-out: 11b-HSD2 inhibitory effect
T3 construct: host or cells: CHO cells
T3 sequence (P80365 1-405): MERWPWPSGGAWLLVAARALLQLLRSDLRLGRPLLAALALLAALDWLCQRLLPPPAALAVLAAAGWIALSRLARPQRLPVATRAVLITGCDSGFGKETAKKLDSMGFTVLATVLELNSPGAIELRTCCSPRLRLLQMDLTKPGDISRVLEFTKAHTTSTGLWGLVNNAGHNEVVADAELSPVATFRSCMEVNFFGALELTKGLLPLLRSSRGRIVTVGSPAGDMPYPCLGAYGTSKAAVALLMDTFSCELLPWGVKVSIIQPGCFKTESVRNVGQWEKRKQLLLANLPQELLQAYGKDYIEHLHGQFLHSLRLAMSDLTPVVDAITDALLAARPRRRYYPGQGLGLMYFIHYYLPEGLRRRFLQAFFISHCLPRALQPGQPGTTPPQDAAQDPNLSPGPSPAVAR
Description: CHO cells were plated on a 96 well plate with RPMI (Wellgene) medium (phenol red free) containing 100 μl of 10% FBS, 100 ug/ml of penicillin and 100 ug/ml of streptomycin (2×10^4 cells/well). CHO cells were transfected with plasmid (Origene, SC122552) (pCMV6-XL5 vector) expressing human 11β-HSD2 by using FuGENE6 reagent (Promega, E2311). 24 hours after transfection, the transfected cells were added with 50 nM of cortisol (Sigma) in the presence or absence of the compound at various concentrations. On the following day (24 hours later), the supernatant liquid was obtained, and through HTRF (Cisbio, 62CO2PEB) analysis, a competitive amount of cortisol was measured.

glucocorticoid receptor = biological target: T4, glucocorticoid receptor (Homo sapiens, UniProt P04150); assay: Competitive binding of glucocorticoid receptor (LanthaScreen TR-FRET); settings: final concentration 10 uM
T4 construct: 4× GR-LBD up to 4 nM, and 4× Tb anti-GST Antibody up to 8 nM; purchased Invitrogen PV6040
T4 sequence (P04150 524-758 limits assumed): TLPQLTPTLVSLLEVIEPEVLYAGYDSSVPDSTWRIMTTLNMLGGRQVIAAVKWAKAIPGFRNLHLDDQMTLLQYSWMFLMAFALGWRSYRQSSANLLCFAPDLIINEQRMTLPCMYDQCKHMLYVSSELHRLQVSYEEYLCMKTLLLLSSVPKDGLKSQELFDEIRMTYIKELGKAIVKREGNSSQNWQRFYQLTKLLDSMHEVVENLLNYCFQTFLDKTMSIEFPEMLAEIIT
Description: In order to confirm the selective inhibitory ability of 11β-HSD1 inhibitor, competitive binding between 11β-HSD1 inhibitor and glucocorticoid ligand was tested by using LanthaScreen TR-FRET Glucocorticoid Receptor Competitive Binding Assay (Invitrogen, PV6040). The test material was dissolved in DMSO (Sigma, 276855) up to a 100× concentration of its final concentration (10 uM), and then Complete Nuclear Receptor Buffer F (1× stabilizing peptide, 5 mM DTT, Nuclear Receptor Buffer F) was used to dilute the test material up to a concentration of 2×, 4× Fluormone™ GS1 Green up to 20 nM, 4× GR-LBD up to 4 nM, and 4× Tb anti-GST Antibody up to 8 nM.
In order to obtain 60 μl of a final product through a reaction, on a 96-well plate, 2× test material 30 μl, 4× Fluormone™ GS1 Green 15 μl, and 4× GR-LBD/Tb anti-GST Antibody 15 μl were mixed, and reacted for 1 hour. In a positive control group, instead of the test material, Dexamethasone (Sigma, D1756), known as a ligand for glucocorticoid receptor, was used, and in a maximum active control group, DMSO was used, instead of the test material. In a negative control group, instead of the test material, DMSO was used, instead of Fluormone™ GS1 Green, Complete Nuclear Receptor Buffer F was used. On a 384-well white plate, 20 μl each was plated. By using Time-Resolved program in Flexstation3, a fluorescence value was read after excitation ([…]), emission (515 nM/486 nM), Delay time (100 μs), and Integration time (1500 μs) were programmed. By using the obtained value, a value of 515 nM/486 nM was calculated, from which the value in the negative control group was subtracted. The degree of binding of the test material to glucocorticoid receptor of was calculated by the active value of the test material with respect to the active value (100%) in the maximum active control group.

T2 sequence (P28845 whole entry): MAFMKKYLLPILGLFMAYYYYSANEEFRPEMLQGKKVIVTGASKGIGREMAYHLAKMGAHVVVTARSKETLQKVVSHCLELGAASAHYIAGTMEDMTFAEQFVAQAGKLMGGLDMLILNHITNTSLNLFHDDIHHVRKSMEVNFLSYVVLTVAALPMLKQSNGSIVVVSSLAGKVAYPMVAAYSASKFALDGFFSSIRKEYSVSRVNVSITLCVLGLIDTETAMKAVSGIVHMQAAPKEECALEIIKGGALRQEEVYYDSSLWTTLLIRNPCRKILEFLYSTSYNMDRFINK
T1 sequence (P50172 whole entry): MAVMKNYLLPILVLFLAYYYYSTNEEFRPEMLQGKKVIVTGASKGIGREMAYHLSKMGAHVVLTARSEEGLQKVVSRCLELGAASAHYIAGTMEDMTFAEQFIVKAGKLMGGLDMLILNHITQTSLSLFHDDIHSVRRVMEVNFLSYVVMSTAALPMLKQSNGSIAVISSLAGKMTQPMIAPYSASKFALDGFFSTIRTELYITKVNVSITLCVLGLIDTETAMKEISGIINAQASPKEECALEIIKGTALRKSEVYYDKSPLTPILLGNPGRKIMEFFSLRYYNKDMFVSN

SMILES	IC50 (mouse 11β-HSD1)	IC50 (human 11β-HSD1)	inhibition at 10 µM (human 11β-HSD2)	binding to glucocorticoid receptor (glucocorticoid receptor)
CC(C)(NS(=O)(=O)c1cccc2cccnc12)C(=O)NC1C2CC3CC1CC(C(N)=O)(C3)C2 (stereo not shown) [compound 105, N-4-(2-(quinoline-8-sulfonamido)-2-methylpropanamido)adamantane-1-carboxyamide]	0.006 µM	0.023 µM	≤ 40%	–
CC(C)(NS(=O)(=O)c1c(Cl)cccc1Cl)C(=O)NC1C2CC3CC1CC(C(N)=O)(C3)C2 (stereo not shown) [compound 121]	0.004 µM	0.009 µM	≤ 40%	–
CC(C)(NS(=O)(=O)c1ccccc1[N+](=O)[O-])C(=O)NC1C2CC3CC1CC(C(N)=O)(C3)C2 (stereo not shown) [compound 106, N-4-(2-(2-nitrophenylsulfonamido)-2-methylpropanamido)adamantane-1-carboxyamide]	0.04 µM	0.041 µM	≤ 40%	did not bind to glucocorticoid receptor
CC(C)(NS(=O)(=O)c1ccccc1F)C(=O)NC1C2CC3CC1CC(C(N)=O)(C3)C2 (stereo not shown) [compound 85, N-4-(2-(2-fluorophenylsulfonamido)-2-methylpropanamido)adamantane-1-carboxyamide]	–	0.039 µM	–	did not bind to glucocorticoid receptor
CC(C)(NS(=O)(=O)c1c(F)cccc1F)C(=O)NC1C2CC3CC1CC(C(N)=O)(C3)C2 (stereo not shown) [compound 89, N-4-(2-(2,6-difluorophenylsulfonamido)-2-methylpropanamido)adamantane-1-carboxyamide]	–	–	–	did not bind to glucocorticoid receptor
Cc1ccccc1S(=O)(=O)NC(C)(C)C(=O)NC1C2CC3CC1CC(C(N)=O)(C3)C2 (stereo not shown) [compound 104, N-4-(2-(2-methylphenylsulfonamido)-2-methylpropanamido)adamantane-1-carboxyamide]	0.046 µM	0.014 µM	–	did not bind to glucocorticoid receptor
CC(C)(NS(=O)(=O)c1cccc(Cl)c1Cl)C(=O)NC1C2CC3CC1CC(C(N)=O)(C3)C2 (stereo not shown) [compound 87, N-4-(2-(2,3-dichlorophenylsulfonamido)-2-methylpropanamido)adamantane-1-carboxyamide]	0.007 µM	0.005 µM	–	did not bind to glucocorticoid receptor
CC(C)(NS(=O)(=O)c1ccccc1C(F)(F)F)C(=O)NC1C2CC3CC1CC(C(N)=O)(C3)C2 (stereo not shown) [compound 108, N-4-(2-(2-trifluoromethylphenylsulfonamido)-2-methylpropanamido)adamantane-1-carboxyamide]	0.029 µM	0.011 µM	≤ 40%	did not bind to glucocorticoid receptor
CC(C)(NS(=O)(=O)c1ccccc1Cl)C(=O)NC1C2CC3CC1CC(C(N)=O)(C3)C2 (stereo not shown) [compound 83, N-4-(2-(2-chlorophenylsulfonamido)-2-methylpropanamido)adamantane-1-carboxyamide]	0.018 µM	0.009 µM	–	did not bind to glucocorticoid receptor
Cc1c(Cl)cccc1S(=O)(=O)NC(C)(C)C(=O)NC1C2CC3CC1CC(C(N)=O)(C3)C2 (stereo not shown) [compound 97, N-4-(2-(2-methyl-3-chlorophenylsulfonamido)-2-methylpropanamido)adamantane-1-carboxyamide]	0.01 µM	0.005 µM	–	did not bind to glucocorticoid receptor
NC(=O)C12CC3CC(C1)C(NC(=O)C1(NS(=O)(=O)c4cccc5cccnc45)CCC1)C(C3)C2 (stereo not shown) [compound 146, N-4-(1-(quinoline-8-sulfonamido)cyclobutanecarboxyamido)adamantane-1-carboxyamide]	0.02 µM	0.029 µM	≤ 40%	–
Cc1ccc(S(=O)(=O)NC(C)(C)C(=O)NC2C3CC4CC2CC(C(N)=O)(C4)C3)cc1F (stereo not shown) [compound 92, N-4-(2-(3-fluoro-4-methylphenylsulfonamido)-2-methylpropanamido)adamantane-1-carboxyamide]	0.077 µM	0.032 µM	≤ 40%	did not bind to glucocorticoid receptor
CC(C)(NS(=O)(=O)c1ccccc1OC(F)(F)F)C(=O)NC1C2CC3CC1CC(C(N)=O)(C3)C2 (stereo not shown) [compound 90, N-4-(2-(2-trifluoromethoxyphenylsulfonamido)-2-methylpropanamido)adamantane-1-carboxyamide]	0.03 µM	0.017 µM	–	did not bind to glucocorticoid receptor
CC(C)(NS(=O)(=O)c1ccccc1Br)C(=O)NC1C2CC3CC1CC(C(N)=O)(C3)C2 (stereo not shown) [compound 84, N-4-(2-(2-bromophenylsulfonamido)-2-methylpropanamido)adamantane-1-carboxyamide]	0.008 µM	0.011 µM	–	did not bind to glucocorticoid receptor
CC(C)(NS(=O)(=O)c1ccccc1[N+](=O)[O-])C(=O)NC1C2CC3CC(C2)CC1C3 (stereo not shown) [compound 43, N-(adamantane-2-yl)-2-methyl-2-(2-nitrophenylsulfonamido)propanamide]	0.085 µM	0.016 µM	–	did not bind to glucocorticoid receptor
CC(C)(NS(=O)(=O)c1ccc(F)cc1C(F)(F)F)C(=O)NC1C2CC3CC(C2)CC1C3 (stereo not shown) [compound 32, N-(adamantane-2-yl)-2-methyl-2-(4-fluoro-2-trifluoromethylphenylsulfonamido)propanamide]	0.583 µM	0.051 µM	–	–
CC(C)(NS(=O)(=O)c1cccc(Cl)c1)C(=O)NC1C2CC3CC(C2)CC1C3 (stereo not shown) [compound 10, N-(adamantane-2-yl)-2-methyl-2-(3-chlorophenylsulfonamido)propanamide]	0.735 µM	0.212 µM	–	–
